Tested on: angiogenesis (vascular density) in air pouch granuloma
Experiment: Murine air pouch granuloma model of inflammatory angiogenesis
Format: in vivo, mice
Details: positive control
Text: C. Measurement of Angiogenesis in vivo—Murine Air Pouch Granuloma Model
The murine airpouch granuloma model of chronic inflammation (Kimura et al., 1985, J. Pharmacobio-Dyn., 8:393–400; Colville-Nash et al., 1995, J. Pharm. and Exp. Ther., 274:1463–1472) whose disclosure is incorporated herein by reference in its entirety, is characterized by inflammatory cell influx, fibrous tissue proliferation and intense angiogenesis. […] In addition, angiogenesis can be accurately quantitated by a vascular casting method.
Day −1, mice are anesthetized using Aerrane (isoflurane) gas (5%) or other approved methods, after which 3 mls of air is injected into the dorsal subcutaneous tissue using a 27 g needle. Mice are allowed to recover. […]
When the granuloma is removed it is weighed and then dried for 3 days at 45° C. and reweighed. […] The carmine content is then determined against a carmine red standard curve (0.5 to 2 mg/ml) generated in extracted tissue from non carmine treated animals and read at 490 nm. Sample and standard values are determined typically using DeltaSoft Elisa analysis software (Biometallics Inc., Princeton, N.J.). […]
The effect of compounds on vascular density is typically measured 6 days after induction of the granuloma. This time point has been determined to be at or near the peak of angiogenesis. […] Medroxyprogesterone has no effect on granuloma size as measured by dry weight.

For medroxyprogesterone, the “maximum reduction (vascular density / vascular index)” value (measured 6 days after induction) was 50% and the “effect on granuloma size as measured by dry weight” value was “no effect”.

— patent US7005434B2, “Compounds and uses thereof” (SB Corporation, priority 2001, dated 2006)
